The structures appear in SMILES notation. pIC50: −log10 of the molar value.

Our source for the IC50 values is patent US20120083501A1, “COMPOUNDS FOR TREATING NEURODEGENERATIVE DISEASES” (priority 2010, published 2012).

In this experiment the target is T1, BACE1 (Homo sapiens, UniProt P56817).
T1 construct: endogenous in cells; host or cells: HEK-293 cells stably transfected with wild type APP695
T1 sequence (P56817 46-501): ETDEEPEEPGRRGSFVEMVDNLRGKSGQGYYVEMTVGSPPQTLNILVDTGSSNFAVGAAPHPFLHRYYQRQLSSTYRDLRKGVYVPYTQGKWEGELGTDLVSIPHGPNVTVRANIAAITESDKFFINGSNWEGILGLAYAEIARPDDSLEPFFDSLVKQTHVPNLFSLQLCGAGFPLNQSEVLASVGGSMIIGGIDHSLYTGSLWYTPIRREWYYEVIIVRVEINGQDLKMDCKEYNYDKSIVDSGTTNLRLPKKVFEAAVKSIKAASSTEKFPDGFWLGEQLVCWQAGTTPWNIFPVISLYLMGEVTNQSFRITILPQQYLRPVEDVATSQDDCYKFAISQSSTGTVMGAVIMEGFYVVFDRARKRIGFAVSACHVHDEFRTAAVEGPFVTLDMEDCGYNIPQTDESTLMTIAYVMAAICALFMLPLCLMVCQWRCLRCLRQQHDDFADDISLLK
The experiment is described as follows: Cellular BACE1 Inhibition Assay (in vitro cellular Amyloidβ 1-40 production, HTRF immunoassay). Format: cell-based. The note with it: inhibition of Amyloidβ 1-40 production; HEK-293 cells stably transfected with wild type APP695; 48 hours incubation; single assay or mean of multiple assays. Here is the method: The BACE inhibition properties of the compounds of the invention may be determined by the following in vitro cellular Amyloidβ 1-40 production assay.
Inhibition of Amyloidβ 1-40 production was determined by incubating cells with compound for 48 hours and quantifying the level of Amyloidβ 1-40 using an homogeneous time-resolved fluorescence (“HTRF”) immunoassay.
Materials and Methods: HEK-293 cells stably transfected with a DNA construct containing the coding sequence for the wild type APP695 sequence were grown in Dulbecco's Modified Eagle Medium (“DMEM”) supplemented with 10% fetal bovine serum, penicillin/streptomycin and 150 μg/mL G418. Cells were plated in 96-well plates at 35,000 cells/well and allowed to attach for 8-12 hours. Media was changed to DMEM supplemented with 10% fetal bovine serum, penicillin/streptomycin 15 minutes prior to compound addition. Diluted compounds were then added at a final concentration of 0.5% DMSO. After 48 hours, 4 μL of media from each well was added to a corresponding well of a 384 well plate (Perkin Elmer Cat#6008280) containing the HTRF reagents. HTRF reagents were obtained from the CisBio Amyloidβ 1-40 peptide assay kit (Cat# 62B40PEC) and were prepared as follows anti-peptide β (1-40)-Cryptate and anti-peptide β (1-40)-XL655 were stored in 2 plate aliquots at −80° C. Diluent and Reconstitution buffer were stored at 4° C. Aliquots of the two antibodies were diluted 1:100 with Reconstitution buffer, and this mixture was diluted 1:2 with Diluent. 12 μL of the reagent mixture was added to the required wells of the 384 well assay plate. The assay plate was incubated at 4° C. for 17 hours and then analyzed for fluorescence at 665 and 620 nm. The reported IC50 below may be from a single assay or the mean of multiple assays.
Background: TR-FRET usually uses a lanthanide donor and a delayed reading to cut background.
The pIC50 is the negative decadic logarithm of the IC50, by convention in mol/L. Low values mean a large IC50, high ones a small IC50. `COC1CC[C@@H]2[C@@H](C1)Oc1ccc(-c3cc(F)cc(Cl)c3)cc1C21N=C(N)N(C)C1=O` (stereo partly drawn) [Example 30, (4a′R,9a′S)-2-amino-7′-(3-chloro-5-fluorophenyl)-3′-methoxy-1-methyl-1′,2′,3′,4′,4a′,9a′-hexahydrospiro[imidazole-4,9′-xanthen]-5(1H)-one]: the pIC50 is 7.65. Under `COc1ccc2c(c1)C1(N=C(N)N(C)C1=O)[C@H]1COCC[C@@H]1C2` (stereo partly drawn) [Example 107, (4aS,10aS)-2′-amino-8-methoxy-1′-methyl-1,3,4,4a,5,10a-hexahydrospiro[benzo[g]isochromene-10,4′-imidazol]-5′(1′H)-one] stands 6.10.

`CN1C(=O)C2(N=C1N)c1cc(-c3cccnc3F)ccc1O[C@H]1CC(O)CC[C@@H]12` (stereo partly drawn) [Example 96, (4a′S,9a′R)-2-amino-7′-(2-fluoropyridin-3-yl)-3′-hydroxy-1-methyl-1′,2′,3′,4′,4a′,9a′-hexahydrospiro[imidazole-4,9′-xanthen]-5(1H)-one] gave a pIC50 of 8.41. This pIC50 is 2.31 log units higher than that of the compound before.
